Results as given in DBAASP.
Values after ≈ are worked out from the molar mass of the structure shown. Values belong to the molecule of their own block, whether it stands above or below them.

What was measured:
Assay in all cases: ≥ marks a high value that may be exact or a test limit, other limits are often not marked, values filed in µg/mL are converted to µM
[1] = test system: Lacticaseibacillus rhamnosus 1.0925
[2] = test system: Pseudomonas aeruginosa ATCC 27853
[3] = test system: Lacticaseibacillus rhamnosus 1.0386
[4] = test system: Lactiplantibacillus plantarum 8014
[5] = test system: Staphylococcus epidermidis ATCC 12228
[6] = test system: Staphylococcus aureus ATCC 29213
[7] = test system: Lacticaseibacillus rhamnosus 1.0911
[8] = test system: Staphylococcus aureus ATCC 43300
Escherichia coli UB1005 = test system: Escherichia coli UB1005
[9] = test system: Lacticaseibacillus rhamnosus 7469
[10] = test system: Lacticaseibacillus rhamnosus 1.0385
[11] = test system: Escherichia coli ATCC 25922
[12] = test system: Candida parapsilosis ATCC 22019
[13] = test system: Staphylococcus aureus ATCC 25923
[14] = test system: Acinetobacter baumannii ATCC 19606
Listeria ivanovii = test system: Listeria ivanovii
[15] = test system: Escherichia coli ATCC 35218
Bacillus megaterium = test system: Bacillus megaterium
Escherichia coli ML-35p = test system: Escherichia coli ML-35p
[16] = test system: Staphylococcus aureus ATCC BAA-44
[17] = test system: Klebsiella pneumoniae ATCC 13883
[18] = test system: Enterococcus faecalis ATCC 29212
[19] = test system: Salmonella enterica subsp. enterica serovar Enteritidis
[20] = test system: Candida albicans ATCC 90028
[21] = test system: Staphylococcus aureus ST1065
Saccharomyces cerevisiae = test system: Saccharomyces cerevisiae
[22] = test system: Escherichia coli NBRC 3972
[23] = test system: Candida viswanathii NBRC 10321
[24] = test system: Staphylococcus epidermidis NBRC 12993
[25] = test system: Pseudomonas putida NBRC 100650
[26] = test system: Aspergillus oryzae NBRC 100959
[27] = test system: Micrococcus luteus NBRC 3333
[28] = test system: Salmonella enterica subsp. enterica serovar Typhimurium ATCC 14028
[29] = test system: Bacillus subtilis CMCC 63501
[30] = test system: Salmonella typhimurium ATCC 7731
[31] = test system: Aeromonas hydrophila ATCC 35654
[32] = test system: Micrococcus luteus ATCC 49732
[33] = test system: Streptococcus mutans ATCC 25175
[34] = test system: Staphylococcus aureus ATCC 12600
[35] = test system: Escherichia coli ATCC 2592
[36] = test system: Pseudomonas aeruginosa ATCC 9027
[37] = test system: Staphylococcus aureus 1550
[38] = test system: Micrococcus luteus ATCC 9341
[39] = test system: Staphylococcus aureus ATCC 6538

- MIC [12]: ≥ 50 µM
- MIC [13]: 3.12 µM (≈ 4.99 µg/mL)
- MIC [2]: 60 µM (≈ 96 µg/mL)
- MIC [14]: 25 µM (≈ 40 µg/mL)
- MIC (Listeria ivanovii): 5 µM (≈ 8 µg/mL)
- MIC [15]: ≥ 50 µM
- MIC (Bacillus megaterium): 1.56 µM (≈ 2.5 µg/mL)
- MIC (Escherichia coli ML-35p): ≥ 50 µM
- MIC [8]: 3.1 µM (≈ 4.96 µg/mL)
- MIC [16]: 3.12 µM (≈ 4.99 µg/mL)
- MIC [17]: ≥ 100 µM
- MIC [18]: 12.5 µM (≈ 20 µg/mL)
- MIC [19]: ≥ 100 µM
- MIC [20]: ≥ 100 µM
- MIC [21]: 3.12 µM (≈ 4.99 µg/mL)
- MIC [11]: 25 µM (≈ 40 µg/mL)
- MIC (Saccharomyces cerevisiae): 12.5 µM (≈ 20 µg/mL)
SMILES: CC[C@H](C)[C@H](NC(=O)CNC(=O)[C@H](C)NC(=O)[C@H](CC(C)C)NC(=O)[C@H](C)NC(=O)[C@@H]1CCCN1C(=O)[C@H](CC(C)C)NC(=O)[C@@H](N)Cc1ccccc1)C(=O)N[C@@H](C)C(=O)NCC(=O)N[C@@H](CC(C)C)C(=O)N[C@@H](CC(C)C)C(=O)NCC(=O)N[C@@H](CCCCN)C(=O)N[C@H](C(=O)N[C@@H](Cc1ccccc1)C(N)=O)[C@@H](C)CC [FLPALAGIAGLLGKIF]

- MIC [22]: 4.08 µM (≈ 6.25 µg/mL)
- MIC [23]: 8.15 µM (≈ 12.5 µg/mL)
- MIC [24]: 4.08 µM (≈ 6.25 µg/mL)
- MIC [25]: 8.15 µM (≈ 12.5 µg/mL)
- MIC [26]: 16.3 µM (≈ 25 µg/mL)
- MIC [27]: 2.04 µM (≈ 3.13 µg/mL)
SMILES: CC[C@H](C)[C@H](NC(=O)[C@H](CCSC)NC(=O)[C@H](CCCN=C(N)N)NC(=O)[C@H](CCCN=C(N)N)NC(=O)[C@H](CC(C)C)NC(=O)[C@H](Cc1ccc(O)cc1)NC(=O)[C@H](CCCN=C(N)N)NC(=O)[C@H](CCCCN)NC(=O)[C@@H](NC(=O)[C@H](CCCCN)NC(=O)[C@@H](N)CCCN=C(N)N)[C@@H](C)CC)C(=O)O [RKIKRYLRRMI]

- MIC [35]: 8 µM (≈ 10 µg/mL)
- MIC [36]: 4 µM (≈ 5 µg/mL)
- MIC [37]: 17.6 µM (≈ 22 µg/mL)
- MIC [38]: 3.2 µM (≈ 4 µg/mL)
- MIC [39]: 2.49 µM (≈ 3.12 µg/mL)
SMILES: CC(C)[C@H](NC(=O)[C@H](CCCCN)NC(=O)[C@H](Cc1ccccc1)NC(=O)[C@@H](NC(=O)[C@@H](NC(=O)[C@H](CCCCN)NC(=O)[C@@H](N)CCCCN)C(C)C)C(C)C)C(=O)N[C@@H](CCCCN)C(=O)N[C@@H](Cc1ccccc1)C(=O)N[C@@H](CCCCN)C(=O)O [KKVVFKVKFK]

The next lines start with the molecule.

SMILES: NC(=O)[C@H](CCCN=C(N)N)NC(=O)[C@H](CCCN=C(N)N)NC(=O)[C@H](Cc1c[nH]c2ccccc12)NC(=O)[C@H](Cc1ccc(O)cc1)NC(=O)[C@H](Cc1c[nH]c2ccccc12)NC(=O)[C@H](Cc1c[nH]c2ccccc12)NC(=O)[C@H](Cc1c[nH]c2ccccc12)NC(=O)[C@H](Cc1ccc(O)cc1)NC(=O)[C@H](Cc1c[nH]c2ccccc12)NC(=O)[C@H](CCCN=C(N)N)NC(=O)[C@@H](N)CCCN=C(N)N [RRWYWWWYWRR]
- MIC [1]: ≥ 64 µM
- MIC [2]: 8 µM (≈ 15.2 µg/mL)
- MIC [3]: 16 µM (≈ 30.4 µg/mL)
- MIC [4]: 4 µM (≈ 7.6 µg/mL)
- MIC [5]: 8 µM (≈ 15.2 µg/mL)
- MIC [6]: 8 µM (≈ 15.2 µg/mL)
- MIC [7]: ≥ 64 µM
- MIC [8]: 8 µM (≈ 15.2 µg/mL)
- MIC (Escherichia coli UB1005): ≥ 32 µM
- MIC [9]: ≥ 64 µM
- MIC [10]: 16 µM (≈ 30.4 µg/mL)
- MIC [11]: 32 µM (≈ 60.8 µg/mL)

SMILES: CC[C@H](C)[C@H](NC(=O)[C@H](C)NC(=O)[C@H](CCCCN)NC(=O)[C@H](Cc1ccc(O)cc1)NC(=O)[C@@H](N)CC(C)C)C(=O)N[C@@H](CCCN=C(N)N)C(=O)N[C@@H](CCCN=C(N)N)C(=O)N[C@@H](CCCCN)C(N)=O [LYKAIRRK]
- MIC [2]: > 128 µM
- MIC [28]: > 128 µM
- MIC [5]: > 128 µM
- MIC [6]: > 128 µM
- MIC [29]: ≥ 128 µM
- MIC (Escherichia coli UB1005): ≥ 128 µM
- MIC [30]: ≥ 128 µM
- MIC [11]: > 128 µM

SMILES: CC(C)C[C@H](NC(=O)[C@H](Cc1cnc[nH]1)NC(=O)[C@H](C)NC(=O)[C@H](CCCCN)NC(=O)[C@H](CCCCN)NC(=O)[C@H](Cc1ccccc1)NC(=O)[C@H](CO)NC(=O)[C@H](CCCCN)NC(=O)[C@H](CC(=O)O)NC(=O)[C@H](Cc1cnc[nH]1)NC(=O)[C@H](Cc1c[nH]c2ccccc12)NC(=O)[C@H](CCCN=C(N)N)NC(=O)[C@H](CCC(N)=O)NC(=O)[C@H](CCC(N)=O)NC(=O)[C@H](CCCN=C(N)N)NC(=O)[C@@H](N)CCCN=C(N)N)C(=O)NCC(=O)N[C@H](C(=O)N[C@@H](C)C(=O)N[C@H](C(=O)N[C@@H](CCCCN)C(=O)N[C@@H](C)C(N)=O)C(C)C)[C@@H](C)O [RRQQRWHDKSFKKAHLGTAVKA]
- MIC [13]: > 20 µM
- MIC [31]: 20 µM (≈ 53 µg/mL)
- MIC [32]: 20 µM (≈ 53 µg/mL)
- MIC [11]: > 20 µM

SMILES: CC[C@H](C)[C@H](NC(=O)[C@H](C)NC(=O)CNC(=O)[C@H](Cc1ccccc1)NC(=O)[C@H](CC(C)C)NC(=O)CN)C(=O)N[C@@H](C)C(=O)NCC(=O)N[C@@H](Cc1ccccc1)C(=O)N[C@H](C(=O)N[C@@H](CCCCN)C(=O)N[C@@H](CCCCN)C(=O)NCC(=O)N[C@@H](Cc1c[nH]c2ccccc12)C(=O)N1CCC[C@H]1C(=O)NCC(=O)N[C@@H](CC(C)C)C(=O)N[C@H](C(=O)N[C@@H](CCCCN)C(=O)NCC(N)=O)C(C)C)[C@@H](C)CC [GLFGAIAGFIKKGWPGLVKG]
- MIC [2]: 15.5 µM (≈ 31.2 µg/mL)
- MIC [33]: 1.9 µM (≈ 3.83 µg/mL)
- MIC [34]: 3.9 µM (≈ 7.86 µg/mL)
- MIC [11]: 7.8 µM (≈ 15.7 µg/mL)
